Experimental data reported in patent publication US12606529B2, “Sulfur and amide tropolone inhibitors of nucleotidyl transferases and uses therefor” (Saint Louis University, priority 2019, dated 2026).
In brackets after ≈: the same amount, converted by molar mass. Where two headings read alike, the source gives them in different places.

How the values were obtained:
[1] = test system: C. neoformans var. grubii, KN99; experiment: C. neoformans growth inhibition assay (limiting dilution); assay type: cell-based, Cryptococcus neoformans; conditions: Cryptococcus neoformans, 48 h, 48 h, 35° C., read-out: C. neoformans MIC80
Method: Cell types used for C. neoformans studies. All inhibition assays were performed with C. neoformans var. grubii, KN99 (serotype A, MAT). Two clinical strains of C. neoformans var. grubii, serotype A, were provided by Tamara Doering and Andre Spec. […] Cells were diluted to OD650 0.001 in YNB-02 02 (0.67% yeast nitrogen base, 0.2% dextrose, pH 7.0 with 50 mM MOPs)+1% DMSO prior to addition to the plates for the inhibition assays.
C. neoformans growth inhibition assays. Compounds were tested in a limiting dilution assay with a starting optical density (at 650 nm) of 0.001 in YNB-02 plus 1% DMSO. Cells plus compound were incubated in 96-well clear round bottom plates covered with a Breath-easy® membrane without shaking for 48 hours at 35° C. Before measuring cell density, plates were shaken on a microtiter plate shaker at 900 rpm for 3 minutes to resuspend cells and optical density was measured at 650 nm. […] Each assay was done in triplicate and all values are the average of two or more independent assays. The data are presented as the average cell density as a percent of DMSO-only treated cells. MICs are reported as the minimal concentration needed to inhibit 80% of C. neoformans growth relative to vehicle-treated controls.

HBV replication = HBV replication inhibition in HepDES19 cells (strand-preferential qPCR); conditions: for EC50: Hepatitis B virus; for SI (CC50/EC50): cytotoxicity CC50 over HBV replication EC50
Method: Cells used for toxicity and HBV studies.
HBV replication inhibition studies. HepDES19 cells were seeded in 96-well plates at 4×10^4 cells per well in the absence of tetracycline. Test compounds in a final DMSO concentration of 1% were applied to cells 48 hours after induction of HBV replication and cells were incubated with compounds for 72 hours. Cells were washed in 200 μL of phosphate buffered saline (PBS) and lysed in 150 μL of core lysis buffer (10 mM Tris pH 7.4, 1% Tween20, 150 mM NaCl). Cells were incubated at room temperate on an orbital shaker at 350 rpm for 40 minutes. Cell lysate was transferred to a 96 well polymerase chain reaction (PCR) plate and centrifuged at 3300×g for 5 minutes. The supernatant (50 μL) from the cell lysate was transferred to a 96-well PCR plate and mixed with 20 units of micrococcal nuclease and 100 μM CaCl2. The lysate was incubated for 1 hour at 37° C., and then the nuclease was inactivated at 70° C. for ten minutes. Qiagen protease (0.005 Anson units) was added to the lysate and the mixture was incubated overnight. Qiagen protease was then inactivated at 95° C. for ten minutes.
The crude lysate was used as the template for strand-preferential quantitative polymerase chain reaction (q-PCR) analysis. Quantitative PCR was performed with 40 cycles of 95° C. for 15 s and 60° C. for 1 minute employing the Kappa Probe Force universal PCR master mix.

in vitro = conditions: human, HepDES19 cells
Method: Cells used for toxicity and HBV studies. […] Cells were maintained in Dulbecco's modified Eagle's medium (DMEM)/F12 media supplemented with 10% fetal bovine serum (FBS) and 1% penicillin/streptomycin (P/S) with 1 μg/mL tetracycline. Synchronized expression of HBV pgRNA was induced by removing tetracycline from the culture medium.
Cytotoxicity Assays. Qualitative assessments of cytotoxicity were done visually by inspecting the cells in the primary screening assays. […] The next day the compounds were added at 0.78 to 100 μM in a final concentration of 1% (v/v) DMSO, and the cells were incubated for 24 hours under conditions identical to those employed for the viral replication inhibition assays. Mitochondrial toxicity was measured by incubating the cells with 0.25 mg/mL thiazolyl blue tetrazolium bromide (MTT, SigmaAldrich Chemical Co.), the cultures were incubated for 60 mM, metabolites were solubilized in acidic isopropanol, and absorbance was read at 570 nm. CC50 values were calculated by non-linear curve fitting using GraphPad Prism using the three-parameter variable-response log(inhibitor)-versus-response algorithm with the bottom value set to zero.

human RNaseH1 = target: T1, human RNaseH1 (Homo sapiens, UniProt O60930); experiment: Biochemical inhibition of human RNaseH1 activity; conditions: for SIApparent (huRH1 IC50/EC50): huRH1 IC50 over HBV replication EC50
T1 sequence (O60930 1-286): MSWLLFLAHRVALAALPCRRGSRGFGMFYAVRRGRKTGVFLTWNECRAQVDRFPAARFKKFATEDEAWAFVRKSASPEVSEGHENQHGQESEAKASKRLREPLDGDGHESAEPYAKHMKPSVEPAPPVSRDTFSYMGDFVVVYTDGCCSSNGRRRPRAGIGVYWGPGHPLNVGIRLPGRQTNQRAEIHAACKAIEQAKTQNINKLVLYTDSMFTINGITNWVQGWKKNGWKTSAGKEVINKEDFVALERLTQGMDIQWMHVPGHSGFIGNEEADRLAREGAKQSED
Method: Biochemical inhibition of human RNaseH1 activity. Quantitative inhibition of the human RNaseH1 in the biochemical assays was assessed using a molecular beacon assay as described previously (Edwards et al., 2017). Recombinant human RNaseH 1 (0.3 μg) was incubated with 100 nM RNA:DNA substrate, 50 mM HEPES pH 8.0, 100 mM NaCl, 2 mM Tris(2-carboxyethyl)phosphine hydrochloride (TCEP), 0.05% Tween20, 5 units of RNaseOut, test compounds (0 to 500 μM), and 5% DMSO in a 100 μL reaction volume. The substrate was formed by annealing a complementary RNA oligonucleotide to a hairpin DNA oligonucleotide to hold the hairpin DNA oligonucleotide in an open conformation. The DNA oligonucleotide has a 5′ fluorescein reporter and a 3′ black hole quencher. When the RNA is degraded from the substrate the DNA oligonucleotide closes to form a hairpin structure, decreasing in signal intensity. Reactions were initiated with 5 mM MgCl2 and fluorescence was read using a Synergy HTS multi-mode plate reader at 37° C. Alternatively, the HBV RNaseH version used was MBP-HRHgtCΔ5, a genotype C isolate which lacks the C-terminal 35 amino acids of the HBV RNaseH domain that are predicted to be unstructured. Quantitative inhibition of the human RNaseH1 in biochemical assays was assessed using a FRET-based RNaseH assay under conditions previously reported for an RNaseH molecular beacon assay (Edwards et al., 2017). […] Cleavage of the RNA strand released the fluorescein from quenching, increasing fluorescence. Reactions were monitored for 90 min at 37° C. in a plate reader and initial reaction rates were calculated. Reactions contained escalating concentrations of the compounds.

HSV-1 = experiment: Anti-HSV-1 replication assay (Vero cells, plaque titer); assay type: cell-based, herpes simplex virus 1; conditions: for log reduction at 5 µM: compound at 5 μM, read-out: HSV-1 suppression 5 μM; for log reduction at 1 µM: compound at 1 μM, read-out: HSV-1 suppression 1 μM
[2] = Table 2 amides, tested 0.19 to 50 μM
[3] = HepDES19, 72 h, Table 2 amides, HBV replication, HepDES19 cells, plus-polarity DNA, 72 h
[4] = Table 2 amides, read-out: HuRH1 IC50
[5] = Human alphaherpesvirus 1, Vero, Table 2 amides, values separated by / are repeats
[6] = Human alphaherpesvirus 1, Vero, Table 3 sulfur compounds, values separated by / are repeats
[7] = HepDES19, read-out: HBV EC50, Table 3 sulfur compounds, HBV replication, HepDES19 cells
[8] = CC50, Table 3 sulfur compounds, MTT
[9] = Table 3 sulfur compounds, read-out: Hu RNaseH IC50
[10] = HepDES19, read-out: EC50 against HBV replication

SMILES	MIC80 [1, 2]	EC50 (HBV replication; [3])	CC50 at 24 h (in vitro; CC50 (μM), Table 2 amides, MTT)	IC50 (human RNaseH1; [4])	log reduction at 5 µM (HSV-1; [5])	log reduction at 1 µM (HSV-1; [6])	log reduction at 5 µM (HSV-1; [6])	MIC80 ([1]; Table 3 sulfur compounds)	EC50 (HBV replication; [7])	CC50 at 24 h (in vitro; [8])	IC50 (human RNaseH1; [9])	also measured
Cc1cc(O)c(=O)c(O)cc1C(=O)N1CCN(C(=O)c2ccco2)CC1 [compound 800]	26 µM (≈ 9.32 µg/mL)	0.52 ± 0.2 µM	16.5 ± 11.4 µM	46.3 ± 10.2 µM								
Cc1cc(O)c(=O)c(O)cc1C(=O)N1CCN(C(=O)c2cccnc2)CC1 [compound 918]	50 µM (≈ 18.5 µg/mL)	1.45 ± 0.4 µM	43.8 ± 10.7 µM	127 ± 98.1 µM								
Cc1cc(O)c(=O)c(O)cc1C(=O)Nc1ccc(F)cc1F [compound 711]	4.5 µM (≈ 1.38 µg/mL)	0.75 ± 0.3 µM	4.6 ± 0.8 µM	184 µM	0.32							EC50 against HBV replication (HBV replication): sub-micromolar; SI (CC50/EC50) (HBV replication; Table 2 amides): 10.2; SIApparent (huRH1 IC50/EC50) (human RNaseH1; Table 2 amides): 247
O=c1c(O)cccc(S(=O)(=O)Cc2ccccc2)c1O [compound 705]						0.19	3.55	50 µM (≈ 14.6 µg/mL)	2.76 µM	8.4 µM	135 µM	
Cc1cc(O)c(=O)c(O)cc1C(=O)N1CCN(C2CC2)CC1 [compound 871]	50 µM (≈ 15.2 µg/mL)	1.15 ± 0.4 µM	36.6 ± 3.6 µM	88.2 ± 43.3 µM	-0.0192							log reduction at 1 µM (HSV-1; [5]): -0.1
C#CCCC1(CCNC(=O)c2cc(O)c(=O)c(O)cc2C)N=N1 [compound 384]	3.5 µM (≈ 1.1 µg/mL)	0.66 ± 0.7 µM	17.6 ± 8.9 µM	111 ± 48.8 µM	0.77							
Cc1cc(O)c(=O)c(O)cc1C(=O)N1CCCCC1 [compound 390]	22 µM (≈ 5.79 µg/mL)	0.31 ± 0.1 µM	24.9 ± 11.6 µM	106 ± 64.6 µM	0.52							EC50 (HBV replication; [10]): 0.31 µM; CC50 at 24 h (in vitro; CC50): > 20 µM
Cc1cc(O)c(=O)c(O)cc1C(=O)N1CCN(c2ncccn2)CC1 [compound 1016]	18 µM (≈ 6.16 µg/mL)	0.9 µM	24.6 ± 40 µM	5.1 ± 2.7 µM								
COC(=O)[C@H](CCSC)NC(=O)c1cc(O)c(=O)c(O)cc1C [compound 796]	18 µM (≈ 6.14 µg/mL)	1.1 ± 0.1 µM	36 ± 24.1 µM	83.3 ± 40.2 µM								
O=c1c(O)cccc(S)c1O [compound 701]							0.94	5 µM (≈ 0.851 µg/mL)	7.6 µM	63.9 µM	46 µM	
O=c1c(O)c(SCc2ccccc2)ccc(SCc2ccccc2)c1O [compound 703]						4.56	5.88	6.75 µM (≈ 2.58 µg/mL)	10.6 µM	8.2 µM	49.6 µM	
O=c1c(O)cccc(S(=O)(=O)c2cccc3ccccc23)c1O [compound 698]						-0.35	4.85	49 µM (≈ 16.1 µg/mL)	6.18 µM	14.8 µM	234 µM	log reduction at 0.33 µM (HSV-1; Human alphaherpesvirus 1, Vero, Table 3 sulfur compounds, compound at 0.33 μM, values separated by / are repeats, read-out: HSV-1 suppression 0.33 μM): -0.31
Cc1cc(O)c(=O)c(O)cc1C(=O)N1CCN(Cc2c(F)cccc2Cl)CC1 [compound 1021]	4.5 µM (≈ 1.83 µg/mL)	3.05 ± 0.6 µM	10.4 ± 7.3 µM	44 ± 46.2 µM								EC50 (HBV replication; [10]): > 2 µM
O=c1c(O)cccc(SCCc2ccccc2)c1O [compound 704]						0.06	5.72	1.4 µM (≈ 0.384 µg/mL)	52 µM	21.6 µM	24.7 µM	EC50 (HBV replication; [10]): 52 µM
Cc1cc(O)c(=O)c(O)cc1C(=O)Nc1ccc(F)nc1 [compound 707]	36 µM (≈ 10.4 µg/mL)	0.54 µM	19.4 ± 8.4 µM	148 ± 22.3 µM	-0.18							SI (CC50/EC50) (HBV replication; Table 2 amides): 36.2; SIApparent (huRH1 IC50/EC50) (human RNaseH1; Table 2 amides): 277
Cc1cc(O)c(=O)c(O)cc1C(=O)N1CCN(C(c2ccc(F)cc2)c2ccc(F)cc2)CC1 [compound 1017]	6 µM (≈ 2.8 µg/mL)	5.6 µM	3.9 ± 1.4 µM	29.9 ± 10.7 µM								EC50 (HBV replication; [10]): > 2 µM
Cc1cc(O)c(=O)c(O)cc1C(=O)N1CCN(C(=O)C2COc3ccccc3O2)CC1 (stereo not shown) [compound 876]	9 µM (≈ 3.84 µg/mL)	0.7 ± 0.4 µM	9.2 ± 3.2 µM	39.2 ± 40.6 µM	0.273							log reduction at 1 µM (HSV-1; [5]): -0.0739
CCCCSc1ccc(SCCCC)c(O)c(=O)c1O [compound 694]						4.85	5.86	2 µM (≈ 0.629 µg/mL)	12.6 µM	1.8 µM	127 µM	Therapeutic index (CC50/EC50) for HBV (TI, SI) (HBV replication): 0.14
Cc1cc(O)c(=O)c(O)cc1C(=O)N1CCSC1 [compound 712]	18 µM (≈ 4.81 µg/mL)	0.77 ± 0.5 µM	6.4 ± 0.8 µM	116 ± 67.6 µM	0.36							
O=c1c(O)cccc(Sc2ccccc2)c1O [compound 691]						0.72	5.69	1 µM (≈ 0.246 µg/mL)	43.6 µM	19.5 µM	31.9 µM	Reduction of HSV-1 titers / suppression of HSV-1 replication at 5 μM (HSV-1; 5 μM, plaque forming units (PFU)/ml): > 3 log10
